By MIC is commonly meant the lowest concentration found to suppress growth.

In brackets after ≈: the same amount, converted by molar mass. Bounds are passed on as bounds.

Assay [1] relates to Mycobacterium tuberculosis. As to the kind of experiment: Antitubercular activity against multidrug resistant Mycobacterium tuberculosis 16995 incubated for 8 days by MABA. The assay is classed as functional. Conditions: Mycobacterium tuberculosis, 16995, 192 h; time 8 day. (In general: Resazurin is reduced to fluorescent resorufin, in cell work by metabolically active cells.)

Assay [2] relates to Mycobacterium tuberculosis. In words: Antitubercular activity against multidrug resistant Mycobacterium tuberculosis 16883 incubated for 8 days by MABA. The assay is classed as functional. The conditions noted are these: Mycobacterium tuberculosis, 16883, 192 h; time 8 day.

Take `CN(C1CCCCC1)N1CCN(c2nc(=O)c3cc(C(F)(F)F)cc([N+](=O)[O-])c3s2)CC1(C)C`: the MIC in assay [1] and in assay [2] was < 1 ng/mL in each case.
Consider `CN(C1CCCCCCC1)N1CCN(c2nc(=O)c3cc(C(F)(F)F)cc([N+](=O)[O-])c3s2)CC1`, for which the MIC in assay [1] and in assay [2] was < 1 ng/mL each time.
On to `CN(C1CCC(F)(F)CC1)N1CCN(c2nc(=O)c3cc(C(F)(F)F)cc([N+](=O)[O-])c3s2)CC1`, for which the MIC in assay [1] and in assay [2] was < 1 ng/mL throughout.
Regarding `CN(C1CCC(=NOC(C)(C)C)CC1)N1CCN(c2nc(=O)c3cc(C(F)(F)F)cc([N+](=O)[O-])c3s2)CC1` (stereo not drawn), the MIC in assay [1] stood at 12.8 ng/mL (≈ 23 nM); in assay [2], 5.25 ng/mL (≈ 9.43 nM).
For `O=c1nc(N2CCN(NC3CCCCCCC3)CC2)sc2c([N+](=O)[O-])cc(C(F)(F)F)cc12` the same measures were < 1 ng/mL and < 1 ng/mL.
As for `CON=C1CCC(N(C)N2CCN(c3nc(=O)c4cc(C(F)(F)F)cc([N+](=O)[O-])c4s3)CC2C)CC1` (stereo not drawn), the results for the MIC in assay [1] and in assay [2] were 14.9 ng/mL (≈ 28.2 nM) and 6.65 ng/mL (≈ 12.6 nM), respectively.
Take `CO[C@H]1/C=C/O[C@@]2(C)Oc3c(C)c(O)c4c(O)c(c(/C=N/N5CCN(C)CC5)c(O)c4c3C2=O)NC(=O)/C(C)=C\C=C\[C@H](C)[C@H](O)[C@@H](C)[C@@H](O)[C@@H](C)[C@H](OC(C)=O)[C@@H]1C` [RIFAMPIN]: the MIC in assay [1] and in assay [2] was > 20000 ng/mL throughout.
As for `CN(C1CCC(C)(C)CC1)N1CCN(c2nc(=O)c3cc(C(F)(F)F)cc([N+](=O)[O-])c3s2)CC1(C)C`, the MIC in assay [1] and in assay [2] was < 1 ng/mL each time.
Regarding `CC1CCCCC1NN1CCN(c2nc(=O)c3cc(C(F)(F)F)cc([N+](=O)[O-])c3s2)CC1` (stereo not drawn), the MIC in assay [1] and in assay [2] was < 1 ng/mL each time.
Consider `CC1CC(N(C)N2CCN(c3nc(=O)c4cc(C(F)(F)F)cc([N+](=O)[O-])c4s3)CC2)CC(C)(C)C1` (stereo not drawn), for which the minimal inhibitory concentration (MIC) in assay [1] and in assay [2] was < 1 ng/mL throughout.
For `CN(C1C2CC3CC(C2)CC1C3)N1CCN(c2nc(=O)c3cc(C(F)(F)F)cc([N+](=O)[O-])c3s2)CC1` (stereo not drawn), the figures for the MIC in assay [1] and in assay [2] were 1.5 ng/mL (≈ 2.86 nM) and < 1 ng/mL, respectively.
`O=c1nc(N2CCN(NC3CCCCC3)CC2)sc2c([N+](=O)[O-])cc(C(F)(F)F)cc12`: the MIC in assay [1] and in assay [2] was < 1 ng/mL throughout.
Take `CC1CCC(NN2CCN(c3nc(=O)c4cc(C(F)(F)F)cc([N+](=O)[O-])c4s3)CC2)CC1` (stereo not drawn): the MIC in assay [1] and in assay [2] was < 1 ng/mL throughout.
Take `CC1CCCCC1N(C)N1CCN(c2nc(=O)c3cc(C(F)(F)F)cc([N+](=O)[O-])c3s2)CC1` (stereo not drawn): the minimum inhibitory concentration (MIC) in assay [1] and in assay [2] was < 1 ng/mL throughout.
On to `CCON=C1CCC(N(C)N2CCN(c3nc(=O)c4cc(C(F)(F)F)cc([N+](=O)[O-])c4s3)CC2)CC1` (stereo not drawn), for which the values for the MIC in assay [1] and in assay [2] were 11.2 ng/mL (≈ 21.2 nM) and 11.4 ng/mL (≈ 21.7 nM), respectively.
Take `CN(C1CCC(C)(C)CC1)N1CCN(c2nc(=O)c3cc(C(F)(F)F)cc([N+](=O)[O-])c3s2)CC1`: the MIC in assay [1] and in assay [2] was < 1 ng/mL throughout.
Turning to `CON=C1CCC(N(C)N2CCN(c3nc(=O)c4cc(C(F)(F)F)cc([N+](=O)[O-])c4s3)CC2(C)C)CC1` (stereo not drawn), the MIC worked out at 15.7 ng/mL (≈ 28.9 nM) in assay [1] and 125 ng/mL (≈ 231 nM) in assay [2].
Take `CN(C1CCCCC1)N1CCN(c2nc(=O)c3cc(C(F)(F)F)cc([N+](=O)[O-])c3s2)CC1`: the MIC in assay [1] and in assay [2] was < 1 ng/mL throughout.
As to `CC1CCC(N(C)N2CCN(c3nc(=O)c4cc(C(F)(F)F)cc([N+](=O)[O-])c4s3)CC2)CC1` (stereo not drawn), the MIC in assay [1] and in assay [2] was < 1 ng/mL throughout.
For the molecule `O=c1nc(N2CCN(CC3CCCCC3)CC2)sc2c([N+](=O)[O-])cc(C(F)(F)F)cc12` [MACOZINONE], the MIC in assay [1] and in assay [2] was < 1 ng/mL each time.
Turning to `CN(CC1CCC(F)(F)CC1)N1CCN(c2nc(=O)c3cc(C(F)(F)F)cc([N+](=O)[O-])c3s2)CC1`, the MIC in assay [1] and in assay [2] was < 1 ng/mL throughout.
Turning to `CON=C1CCC(N(C)N2CCN(c3nc(=O)c4cc(C(F)(F)F)cc([N+](=O)[O-])c4s3)CC2)CC1` (stereo not drawn), the MIC in assay [1] and in assay [2] was < 1 ng/mL throughout.
Consider `CC1(C)CCC(NN2CCN(c3nc(=O)c4cc(C(F)(F)F)cc([N+](=O)[O-])c4s3)CC2)CC1`, for which the MIC in assay [1] and in assay [2] was < 1 ng/mL each time.
Turning to `CN(C1CCC2(CCCCC2)CC1)N1CCN(c2nc(=O)c3cc(C(F)(F)F)cc([N+](=O)[O-])c3s2)CC1`, the MIC in assay [1] and in assay [2] was < 1 ng/mL in each case.
In the case of `CC1CN(c2nc(=O)c3cc(C(F)(F)F)cc([N+](=O)[O-])c3s2)CCN1N(C)C1CCCCC1` (stereo not drawn), the MIC in assay [1] and in assay [2] was < 1 ng/mL throughout.
In the case of `CC1CN(c2nc(=O)c3cc(C(F)(F)F)cc([N+](=O)[O-])c3s2)CCN1N(C)C1CCC(C)(C)CC1` (stereo not drawn), the MIC in assay [1] and in assay [2] was < 1 ng/mL throughout.
For `CC1CCC(C)C(N(C)N2CCN(c3nc(=O)c4cc(C(F)(F)F)cc([N+](=O)[O-])c4s3)CC2)C1` (stereo not drawn), the MIC in assay [1] and in assay [2] was < 1 ng/mL in each case.
For the molecule `O=c1nc(N2CCN(NC3CCC(F)(F)CC3)CC2)sc2c([N+](=O)[O-])cc(C(F)(F)F)cc12`, the MIC in assay [1] amounted to 4 ng/mL (≈ 8.11 nM); in assay [2], 3.15 ng/mL (≈ 6.38 nM).
With `NNC(=O)c1ccncc1` [ISONIAZID], the MIC in assay [1] and in assay [2] was > 20000 ng/mL each time.

For the origin of these results see ChEMBL document CHEMBL5620381, “Design, synthesis and antitubercular activity of novel N-(amino)piperazinyl benzothiazinones with improved safety” (Eur J Med Chem, 2023).
